Results as given in PMC8488693 (Proceedings of the National Academy of Sciences of the …, 2021).

Assays:
Hs20S β5c = Hs20S β5c (Homo sapiens, UniProt P20618+P28074); test: Hs20S β5c activity, Ac-WLA-AMC cleavage with human PA28αβ; type: biochemical
Pf cultures = settings: ref [9]; cited from earlier work

CC(C)C[C@H](NC(=O)[C@H](Cc1ccccc1)NC(=O)c1cnccn1)B(O)O [Bortezomib, bortezomib, reference compound]
More potent as inhibitor of Hsβ5c activity than of Pfβ5 activity (Hs20S β5c): twofold
Synergy with dihydroxyartemisinin (DHA) (Pf cultures): strong synergy
